The source of these data is patent publication US9475815B2, “Substituted benzothienyl-pyrrolotriazines and uses thereof” (Bayer Intellectual Property GmbH, priority 2012, dated 2016).

Where a name gives a salt, the structure may show the parent alone. Read-outs that look alike come from different tables or passages of the source.

One experiment deals with human mTOR (Homo sapiens (Human), UniProt P42345). Put plainly: mTOR kinase assay (TR-FRET, for comparative purposes). The conditions noted are these: for inhibition at 1 µM: read-out: mTOR % inhibition @ 1 μM, 1 μM test compound, 40 μM ATP, mean values; for mTOR % inhibition @ 1 μM: 1 μM test compound, 40 μM ATP, mean values. It counts as biochemical. How it is done: mTOR inhibitory activity of the compounds of the present invention was quantified employing the TR-FRET based mTOR assay as described in the following paragraphs:
Test compounds were dissolved in DMSO to generate 10 mM stock solutions. These solutions were first 10-fold diluted by 100% DMSO to get 1 mM solutions in 100% DMSO, then 100-fold diluted by 50% DMSO to get 10 μM solutions in 50% DMSO.
(final concentration in the 10 μl assay volume=1 nM) in FRET buffer.
For this, the fluorescence emissions at 495 nm and 520 nm after excitation at 340 nm was measured in an Envision 2104 multilabel reader (Perkin-Elmer).
On the technique in general: TR-FRET usually uses a lanthanide donor and a delayed reading to cut background.

The test system of experiment [1] is Human umbilical vein endothelial cells (HUVEC). The experiment can be described thus: Inhibition of growth factor-mediated cell proliferation (hFGF-2). It counts as cell-based. As to conditions: 72 h exposure, hFGF-2 stimulated, from averaged pIC50 values. How it is done:
Human umbilical vein endothelial cells (HUVEC) were obtained from Cellsystems (FC-0003) and grown in Vasculife VEGF complete medium (Cellsystems, LL-1020) containing 2% fetal bovine serum (FBS) at 37° C. and 5% CO2. The cells were used for proliferation assays up to passage 7.
The HUVEC cells were harvested using accutase (PAA, L11-007) and seeded in columns 2 to 12 of 96-well plates (Falcon MICROTEST tissue culture plate 96-well flat bottom, BD 353075, or μCLEAR-PLATE, black, 96-well, Greiner Bio-One, No. 655090) at a cell density of 2500 cells/well in 100 μl Vasculife VEGF complete medium with column 1 remaining empty as blank. Cells were allowed to incubate at 37° C. and 5% CO2 for at least 6 h. Then, the cells were washed once with PBS and starved overnight in Vasculife basal medium (Cellsystems, LM-0002) containing heparin, ascorbate and L-glutamine (components of the Vasculife Life Factors Kit, Cellsystems, LL-1020) as well as 0.2% FBS.
After about 18 h, the starving medium was discarded, and the cells were exposed for 72 h to 9 consecutive log or half-log concentrations of test compound in the range of 10 pM to 30 μM and to 5, 10 or 20 ng/ml hFGF-2 (recombinant human FGF basic, R&D Systems, 233-FB) in 100 μl starving medium. 10 mM stock solutions of test compounds in DMSO were diluted to 200× final concentration in DMSO resulting in a final DMSO concentration of 0.5% in all wells. Controls consisted of cells grown in starving medium only and of cells grown in hFGF-2 containing starving medium with 0.5% DMSO. To determine cell proliferation, 5 μl Alamar Blue solution (Biosource, DAL1100) was added to each well (1:20 dilution), and the cells were allowed to incubate for further 4 h at 37° C. and 5% CO2 before measuring fluorescence (ex. 535 nm, em. 595 nm) with a Spectrafluor Plus Tecan plate reader (XFLUOR4 version 4.20). In some experiments, an ATP Determination Kit (BIAFFIN GmbH, LBR-T100) was used according to the manufacturer's instructions. In each experiment, samples were assayed in triplicate, and the standard deviations were determined GraphPad Prism 5 software was used to analyze the data and to obtain IC50 values. All test compounds were assayed 2 to 10 times in independent experiments and similar results were obtained.

For a further experiment, the target named is human FGFR-1 (Homo sapiens, UniProt P11362). The experiment can be described thus: FGFR-1 high ATP kinase assay (TR-FRET).
human FGFR-1, sequence (P11362 22-822 limits assumed): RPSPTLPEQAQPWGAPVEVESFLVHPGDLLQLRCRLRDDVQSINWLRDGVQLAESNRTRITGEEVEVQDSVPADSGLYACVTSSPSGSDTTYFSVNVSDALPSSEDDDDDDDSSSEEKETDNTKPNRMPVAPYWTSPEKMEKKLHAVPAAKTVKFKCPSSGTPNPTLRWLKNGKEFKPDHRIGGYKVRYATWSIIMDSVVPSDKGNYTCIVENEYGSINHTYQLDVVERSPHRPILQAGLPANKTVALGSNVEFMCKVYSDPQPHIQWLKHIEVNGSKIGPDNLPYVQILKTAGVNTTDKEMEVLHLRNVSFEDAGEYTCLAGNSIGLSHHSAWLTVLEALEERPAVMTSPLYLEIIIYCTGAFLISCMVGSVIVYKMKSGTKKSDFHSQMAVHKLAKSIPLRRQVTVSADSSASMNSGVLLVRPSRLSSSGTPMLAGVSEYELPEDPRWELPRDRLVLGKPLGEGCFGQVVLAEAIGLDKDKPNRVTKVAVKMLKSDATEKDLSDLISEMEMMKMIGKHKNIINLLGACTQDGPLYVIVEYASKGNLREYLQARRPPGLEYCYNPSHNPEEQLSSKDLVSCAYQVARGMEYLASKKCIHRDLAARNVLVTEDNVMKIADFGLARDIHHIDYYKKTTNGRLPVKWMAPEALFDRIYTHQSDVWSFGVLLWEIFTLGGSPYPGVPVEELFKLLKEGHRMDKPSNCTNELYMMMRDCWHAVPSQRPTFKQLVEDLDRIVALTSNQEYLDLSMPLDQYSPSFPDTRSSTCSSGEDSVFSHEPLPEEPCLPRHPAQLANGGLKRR
In the next experiment the target is human FGFR-3 (Homo sapiens (Human), UniProt P22607). The experiment can be described thus: FGFR-3 kinase assay (TR-FRET). The conditions noted are these: 10 μM ATP, 15 min pre-incubation with enzyme. Type of experiment: biochemical.
human FGFR-3, sequence (P22607 397-806): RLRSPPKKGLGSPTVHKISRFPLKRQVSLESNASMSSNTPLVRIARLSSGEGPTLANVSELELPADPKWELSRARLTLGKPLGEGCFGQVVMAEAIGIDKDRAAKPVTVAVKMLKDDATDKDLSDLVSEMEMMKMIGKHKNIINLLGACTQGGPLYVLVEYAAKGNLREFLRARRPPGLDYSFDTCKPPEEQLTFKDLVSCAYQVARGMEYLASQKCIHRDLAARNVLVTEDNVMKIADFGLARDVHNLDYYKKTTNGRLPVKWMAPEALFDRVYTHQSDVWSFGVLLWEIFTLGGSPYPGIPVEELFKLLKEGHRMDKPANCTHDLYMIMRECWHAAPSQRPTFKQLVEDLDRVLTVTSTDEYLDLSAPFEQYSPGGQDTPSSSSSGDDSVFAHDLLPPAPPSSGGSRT

human mTOR, sequence (P42345 1360-2549): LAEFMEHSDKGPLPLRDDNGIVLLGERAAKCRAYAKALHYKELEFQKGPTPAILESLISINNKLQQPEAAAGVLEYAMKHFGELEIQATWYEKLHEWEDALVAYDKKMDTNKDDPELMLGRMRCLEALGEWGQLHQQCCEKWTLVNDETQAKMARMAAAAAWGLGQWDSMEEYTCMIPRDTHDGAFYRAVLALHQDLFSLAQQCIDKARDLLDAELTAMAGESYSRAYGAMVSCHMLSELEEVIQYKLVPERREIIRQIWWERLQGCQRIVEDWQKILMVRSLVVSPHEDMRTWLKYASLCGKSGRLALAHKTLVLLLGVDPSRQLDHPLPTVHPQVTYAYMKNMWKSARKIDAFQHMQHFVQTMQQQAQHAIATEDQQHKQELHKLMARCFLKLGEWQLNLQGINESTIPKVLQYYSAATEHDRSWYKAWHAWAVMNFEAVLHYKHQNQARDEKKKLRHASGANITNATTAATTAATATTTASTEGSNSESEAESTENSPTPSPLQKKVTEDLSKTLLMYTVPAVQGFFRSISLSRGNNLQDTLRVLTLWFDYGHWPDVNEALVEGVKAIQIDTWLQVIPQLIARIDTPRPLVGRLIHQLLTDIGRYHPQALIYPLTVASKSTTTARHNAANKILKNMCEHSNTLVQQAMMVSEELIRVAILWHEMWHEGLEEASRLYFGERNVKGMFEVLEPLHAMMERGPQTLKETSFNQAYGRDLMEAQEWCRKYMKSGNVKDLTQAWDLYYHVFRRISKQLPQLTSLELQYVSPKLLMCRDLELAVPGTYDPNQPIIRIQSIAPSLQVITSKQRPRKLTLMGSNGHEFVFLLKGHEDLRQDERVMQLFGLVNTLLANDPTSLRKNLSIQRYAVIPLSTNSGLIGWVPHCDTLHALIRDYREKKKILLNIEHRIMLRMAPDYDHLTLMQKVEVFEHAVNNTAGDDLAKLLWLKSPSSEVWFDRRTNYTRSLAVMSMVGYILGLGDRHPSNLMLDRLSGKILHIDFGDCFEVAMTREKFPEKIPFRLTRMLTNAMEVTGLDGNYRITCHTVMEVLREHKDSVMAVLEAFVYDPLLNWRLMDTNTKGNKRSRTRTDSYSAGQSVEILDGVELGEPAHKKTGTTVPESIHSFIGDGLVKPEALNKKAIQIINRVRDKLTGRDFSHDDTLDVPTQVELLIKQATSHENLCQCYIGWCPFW

The inhibition is the change of the read-out against control, counted positive when it falls. A word on the IC50: it is the concentration needed to halve the response being measured. `COc1cc(C)cc2cc(-c3cc(CN4CCNC(C(N)=O)C4)n4ncnc(N)c34)sc12` (racemic) [Example 7, rac-4-{[4-Amino-5-(7-methoxy-5-methyl-1-benzothiophen-2-yl)pyrrolo[2,1-f][1,2,4]triazin-7-yl]-methyl}piperazine-2-carboxamide trihydrochloride]: on human mTOR, the inhibition at 1 µM stood at 43.7%. Moreover, the IC50 was determined as 44 nM in experiment [1] (Homo sapiens, HUVEC, 72 h) and 7.8 nM at human FGFR-1.

`COc1cc(C)cc2cc(-c3cc(C(=O)NC4CCNC4=O)n4ncnc(N)c34)sc12` (racemic) [Example 98, rac-4-Amino-5-(7-methoxy-5-methyl-1-benzothiophen-2-yl)-N-(2-oxopyrrolidin-3-yl)pyrrolo-[2,1-f][1,2,4]triazine-7-carboxamide hydrochloride]: the IC50 against human FGFR-3 worked out at 13.1 nM; in experiment [1] (Homo sapiens, HUVEC, 72 h) it was 48 nM; against human FGFR-1, 9 nM. In addition, on human mTOR, the inhibition at 1 µM stood at 24.6%.

On to `COc1cc(C)cc2cc(-c3cc(CN4CCNCC4)n4ncnc(N)c34)sc12` [Example 1, 5-(7-Methoxy-5-methyl-1-benzothiophen-2-yl)-7-(piperazin-1-ylmethyl)pyrrolo[2,1-f][1,2,4]-triazin-4-amine trihydrochloride hydrate], for which the inhibition at 1 µM on human mTOR amounted to 17.6%. The concentration for half-maximal inhibition (IC50) turned out to be 36 nM in experiment [1] (trihydrochloride hydrate) and 9.9 nM at human FGFR-1.

For the compound `COc1cc(C)cc2cc(-c3cc(CN4CCNCC4)n4ncnc(N)c34)sc12` [Example 2, 5-(7-Methoxy-5-methyl-1-benzothiophen-2-yl)-7-(piperazin-1-ylmethyl)pyrrolo[2,1-f][1,2,4]-triazin-4-amine], on human mTOR, the “mTOR % inhibition @ 1 μM” value came to 22.8%. Besides, the IC50 in experiment [1] turned out to be 127 nM; on human FGFR-1 (read-out: FGFR-1 (high ATP) IC50, 2 mM ATP, 15 min pre-incubation with enzyme) it was 20.1 nM.

Take `COc1cc(C)cc2cc(-c3cc(CN4CC[C@](C)(N)C4)n4ncnc(N)c34)sc12` [Example 5, 7-{[(3S)-3-Amino-3-methylpyrrolidin-1-yl]methyl}-5-(7-methoxy-5-methyl-1-benzothiophen-2-yl)pyrrolo[2,1-f][1,2,4]triazin-4-amine trihydrochloride]: the IC50 at human FGFR-3 was 7.4 nM; in experiment [1] (Homo sapiens, HUVEC, 72 h) it was 48 nM; against human FGFR-1, 1.1 nM. Besides, at human mTOR, the inhibition at 1 µM amounted to 18.8%.

On to `COc1cc(C)cc2cc(-c3cc(CN4CCNC(=O)C4)n4ncnc(N)c34)sc12` [Example 8, 4-{[4-Amino-5-(7-methoxy-5-methyl-1-benzothiophen-2-yl)pyrrolo[2,1-f][1,2,4]triazin-7-yl]-methyl}piperazin-2-one dihydrochloride], for which the inhibition at 1 µM at human mTOR was 45.9%. The IC50 in experiment [1] (Homo sapiens, HUVEC, 72 h) amounted to 370 nM; against human FGFR-1 it was 29 nM.

On to `CNC1CCN(Cc2cc(-c3cc4cc(C)cc(OC)c4s3)c3c(N)ncnn23)C1` (centres unmarked) [Example 41], for which the inhibition at 1 µM at human mTOR worked out at 25.9%. The IC50 in experiment [1] (Homo sapiens, HUVEC, 72 h) worked out at 49 nM; against human FGFR-1, 7.3 nM.

As for `COc1cc(C)cc2cc(-c3cc(CN4CCC(N(C)C)C4)n4ncnc(N)c34)sc12` (centres unmarked) [Example 42], the inhibition at 1 µM on human mTOR is 36.3%. Moreover, the IC50 in experiment [1] (Homo sapiens, HUVEC, 72 h) was 130 nM; at human FGFR-1, 13.4 nM.

As to `COc1cc(C)cc2cc(-c3cc(CN4CCNC(C)(C)C4)n4ncnc(N)c34)sc12` [Example 45], the inhibition at 1 µM at human mTOR was 25.9%. Besides, the IC50 amounted to 217 nM in experiment [1] (Homo sapiens, HUVEC, 72 h) and 18.1 nM at human FGFR-1.

Take `COc1cc(C)cc2cc(-c3cc(C(=O)N4CCC[C@@H](N)C4)n4ncnc(N)c34)sc12` [Example 104]: the IC50 against human FGFR-3 worked out at 14.6 nM; against human FGFR-1 it was 28.1 nM. Also, the inhibition at 1 µM on human mTOR was 17.9%.

For the compound `COc1cc(C)cc2cc(-c3cc(COCCN4CCCC4)n4ncnc(N)c34)sc12` [Example 107, 5-(7-Methoxy-5-methyl-1-benzothiophen-2-yl)-7-{[2-(pyrrolidin-1-yl)ethoxy]methyl}pyrrolo-[2,1-f][1,2,4]triazin-4-amine hydrochloride], the IC50 on human FGFR-3 came out at 46.1 nM; against human FGFR-1 it was 57.3 nM. Further, the inhibition at 1 µM on human mTOR amounted to 15%.

On to `COc1cc(C)cc2cc(-c3cc(COC[C@@H]4CCCN4)n4ncnc(N)c34)sc12` [Example 109], for which the values for the IC50 at human FGFR-3 and against human FGFR-1 were 37.1 nM and 65.6 nM, respectively. Besides, the “mTOR % inhibition @ 1 μM” value on human mTOR is given as “no inhib. effect detect”.

As to `COc1cc(C)cc2cc(-c3cc(COC[C@H]4CCCN4)n4ncnc(N)c34)sc12` [Example 110], the IC50 at human FGFR-3 stood at 57.4 nM; against human FGFR-1, 51.6 nM. Besides, on human mTOR, the inhibition at 1 µM stood at 4.9%.

Take `COc1cc(C)cc2cc(-c3cc(COC[C@H](C)N)n4ncnc(N)c34)sc12` [Example 111]: the IC50 on human FGFR-3 was determined as 85.6 nM; at human FGFR-1 it was 82.2 nM. On human mTOR, the inhibition at 1 µM stood at 1.1%.

Take `CCC(N)COCc1cc(-c2cc3cc(C)cc(OC)c3s2)c2c(N)ncnn12` (centres unmarked) [Example 112]: the results for the IC50 on human FGFR-3 and at human FGFR-1 were 102 nM and 67.2 nM, respectively. Also, on human mTOR, the inhibition at 1 µM worked out at 8.8%.

Regarding `COc1cc(C)cc2cc(-c3cc(COC4CCOC4)n4ncnc(N)c34)sc12` (centres unmarked) [Example 113], the values for the IC50 against human FGFR-3 and on human FGFR-1 were 64.7 nM and 83.1 nM, respectively. For the same compound, the inhibition at 1 µM on human mTOR worked out at 29.7%.

For `CCNC(=O)COCc1cc(-c2cc3cc(C)cc(OC)c3s2)c2c(N)ncnn12` [Example 114], the values for the IC50 against human FGFR-3 and against human FGFR-1 were 30.5 nM and 65.3 nM, respectively. Also, the inhibition at 1 µM on human mTOR was 27.7%.

Consider `COc1cc(C)cc2cc(-c3cc(COCCNC(C)C)n4ncnc(N)c34)sc12` [Example 115], for which the IC50 on human FGFR-3 came out at 63.9 nM; at human FGFR-1, 78.6 nM. In addition, at human mTOR, the inhibition at 1 µM stood at 6.5%.

On to `COc1cc(C)cc2cc(-c3cc(COCCN4CCOC4=O)n4ncnc(N)c34)sc12` [Example 116], for which the IC50 worked out at 71.5 nM at human FGFR-3 and 90.3 nM against human FGFR-1. Also, the inhibition at 1 µM on human mTOR stood at 28%.

Turning to `CNCCOCc1cc(-c2cc3cc(C)cc(OC)c3s2)c2c(N)ncnn12` [Example 117], the IC50 against human FGFR-3 is 34.8 nM; against human FGFR-1, 36.1 nM. In addition, the inhibition at 1 µM on human mTOR was 0.3%.

Turning to `COc1cc(C)cc2cc(-c3cc(CO[C@@H]4CCNC4)n4ncnc(N)c34)sc12` [Example 118], the results for the IC50 at human FGFR-3 and at human FGFR-1 were 45 nM and 26.1 nM, respectively. At human mTOR, the inhibition at 1 µM was 18.4%.

With `COc1cc(C)cc2cc(-c3cc(COCC(C)N)n4ncnc(N)c34)sc12` (centres unmarked) [Example 119], the IC50 on human FGFR-3 is 29.7 nM; at human FGFR-1, 26.7 nM. In addition, the inhibition at 1 µM at human mTOR is 25.1%.

Turning to `COc1cc(C)cc2cc(-c3cc(COCCN)n4ncnc(N)c34)sc12` [Example 120], the results for the IC50 on human FGFR-3 and at human FGFR-1 were 53.9 nM and 50.8 nM, respectively. Besides, the inhibition at 1 µM at human mTOR was determined as 14.8%.

`CCCc1nccn1Cc1cc(-c2cc3cc(C)cc(OC)c3s2)c2c(N)ncnn12` [Example 121]: the values for the IC50 on human FGFR-3 and against human FGFR-1 were 65.9 nM and 33.3 nM, respectively. The inhibition at 1 µM on human mTOR turned out to be 26.8%.

Turning to `COc1cc(C)cc2cc(-c3cc(Cn4ccnc4C#N)n4ncnc(N)c34)sc12` [Example 122], the values for the concentration for half-maximal inhibition (IC50) at human FGFR-3 and at human FGFR-1 were 65.6 nM and 71.8 nM, respectively. Further, the inhibition at 1 µM on human mTOR amounted to 35.7%.

As for `COc1cc(C)cc2cc(-c3cc(Cn4cc(C)nc4C)n4ncnc(N)c34)sc12` [Example 123], the IC50 on human FGFR-3 worked out at 58 nM; at human FGFR-1, 28.3 nM. Further, the inhibition at 1 µM at human mTOR came out at 47.8%.
